# Where a name gives a salt, the structure may show the parent alone. Activity calls are given as the source filed them. No cut-off for these calls is given here.
# Test system: K562
# Assay: Cytotoxicity against human K562 cells assessed as reduction in cell viability after 48 hrs by MTT assay
# Type: cell-based
# Conditions: K562, 48 h
row,SMILES,IC50 [µM]
1,COc1ccc(NC(=O)c2ccccc2NCc2cn(CCN3CCc4cc(OC)c(OC)cc4C3)nn2)cc1OC,60.5
2,COc1cc2c(cc1OC)CN(CCn1cc(CNc3ccccc3C(=O)Nc3ccc4c(c3)OCO4)nn1)CC2,41.5
3,COc1cc2c(cc1OC)CN(CCn1cc(CNc3ccccc3C(=O)Nc3ccc(OC(F)(F)F)cc3)nn1)CC2,90.2
4,COc1cc2c(cc1OC)CN(CCn1cc(CNc3ccccc3C(=O)Nc3ccc([N+](=O)[O-])cc3)nn1)CC2,43.8
5,COc1cc2c(cc1OC)CN(CCn1cc(CNc3ccccc3C(=O)Nc3ccc(C(C)(C)C)cc3)nn1)CC2,45.4
6,COc1cc2c(cc1OC)CN(CCn1cc(CNc3ccccc3C(=O)Nc3cc(OC)c(OC)c(OC)c3)nn1)CC2,43.1
7,COc1ccc(NC(=O)c2ccccc2NCc2cn(CCN3CCc4cc(OC)c(OC)cc4C3)nn2)cc1,58.4
8,COc1cccc2c1C(=O)c1c(O)c3c(c(O)c1C2=O)C[C@@](O)(C(=O)CO)C[C@@H]3O[C@H]1C[C@H](N)[C@H](O)[C@H](C)O1 [DOXORUBICIN HYDROCHLORIDE],0.97
9,COc1cc2c(cc1OC)CN(CCn1cc(CNc3ccccc3C(=O)Nc3ccc(Cl)cc3)nn1)CC2,43.4

# Test system: K562/A02
# Assay: Cytotoxicity against human K562/A02 cells overexpressing P-gp assessed as reduction in cell viability after 48 hrs by MTT assay
# Type: ADME, cell-based
# Conditions: K562/A02, 48 h, read-out: IC50
row,SMILES,IC50 [µM]
1,COc1ccc(NC(=O)c2ccccc2NCc2cn(CCN3CCc4cc(OC)c(OC)cc4C3)nn2)cc1OC,> 100
2,COc1cc2c(cc1OC)CN(CCn1cc(CNc3ccccc3C(=O)Nc3ccc4c(c3)OCO4)nn1)CC2,> 100
3,COc1cc2c(cc1OC)CN(CCn1cc(CNc3ccccc3C(=O)Nc3ccc(OC(F)(F)F)cc3)nn1)CC2,> 100
4,COc1cc2c(cc1OC)CN(CCn1cc(CNc3ccccc3C(=O)Nc3ccc([N+](=O)[O-])cc3)nn1)CC2,> 100
5,COc1cc2c(cc1OC)CN(CCn1cc(CNc3ccccc3C(=O)Nc3ccc(C(C)(C)C)cc3)nn1)CC2,> 100
6,COc1cc2c(cc1OC)CN(CCn1cc(CNc3ccccc3C(=O)Nc3cc(OC)c(OC)c(OC)c3)nn1)CC2,> 100
7,COc1ccc(NC(=O)c2ccccc2NCc2cn(CCN3CCc4cc(OC)c(OC)cc4C3)nn2)cc1,> 100
8,COc1cccc2c1C(=O)c1c(O)c3c(c(O)c1C2=O)C[C@@](O)(C(=O)CO)C[C@@H]3O[C@H]1C[C@H](N)[C@H](O)[C@H](C)O1 [DOXORUBICIN HYDROCHLORIDE],65.6
9,COc1cc2c(cc1OC)CN(CCn1cc(CNc3ccccc3C(=O)Nc3ccc(Cl)cc3)nn1)CC2,> 100

# Species on record: Homo sapiens
# Assay: Inhibition of P-gp in human K562/A02 cells assessed as potentiation of adriamycin-induced cytotoxicity by measuring fold reduction in adriamycin IC50 at 2.5 uM after 48 hrs by MTT assay relative to adriamycin alone
# Type: cell-based
# Conditions: not given
row,SMILES,Ratio IC50
1,COc1cc2c(cc1OC)CN(CCn1cc(CNc3ccccc3C(=O)Nc3ccc(C(C)(C)C)cc3)nn1)CC2,13.1

# Species on record: Homo sapiens
# Assay: (§1) Inhibition of P-gp in human K562/A02 cells assessed as potentiation of adriamycin-induced cytotoxicity by measuring fold reduction in adriamycin IC50 at 5 uM after 48 hrs by MTT assay relative to adriamycin alone
# Type: cell-based
# Conditions: not given
row,SMILES,Ratio IC50
1,COc1ccc(NC(=O)c2ccccc2NCc2cn(CCN3CCc4cc(OC)c(OC)cc4C3)nn2)cc1OC,1.3
2,COc1cc2c(cc1OC)CN(CCn1cc(CNc3ccccc3C(=O)Nc3ccc4c(c3)OCO4)nn1)CC2,4.6
3,COc1cc2c(cc1OC)CN(CCn1cc(CNc3ccccc3C(=O)Nc3ccc(OC(F)(F)F)cc3)nn1)CC2,21.4
4,COc1cc2c(cc1OC)CN(CCn1cc(CNc3ccccc3C(=O)Nc3ccc([N+](=O)[O-])cc3)nn1)CC2,2.6
5,COc1cc2c(cc1OC)CN(CCn1cc(CNc3ccccc3C(=O)Nc3ccc(C(C)(C)C)cc3)nn1)CC2,34.2 to 39
6,COc1cc2c(cc1OC)CN(CCn1cc(CNc3ccccc3C(=O)Nc3cc(OC)c(OC)c(OC)c3)nn1)CC2,1.3
7,COc1cc2c(cc1OC)CN(CCn1cc(CNc3ccccc3C(=O)Nc3ccc(Cl)cc3)nn1)CC2,2.6
8,COc1cc2c(cc1OC)CN(CCc1ccc(NC(=O)c3cc(OC)c(OC)cc3NC(=O)c3cnc4ccccc4c3)cc1)CC2,49.4

# Species on record: Homo sapiens
# Assay: Inhibition of P-gp in human K562/A02 cells assessed as potentiation of adriamycin-induced cytotoxicity by measuring fold reduction in adriamycin IC50 at 1 uM after 48 hrs by MTT assay relative to adriamycin alone
# Type: cell-based
# Conditions: not given
row,SMILES,Ratio IC50
1,COc1cc2c(cc1OC)CN(CCn1cc(CNc3ccccc3C(=O)Nc3ccc(C(C)(C)C)cc3)nn1)CC2,7.3

# Species on record: Homo sapiens
# Assay: Inhibition of P-gp in human K562/A02 cells assessed as potentiation of adriamycin-induced cytotoxicity by measuring fold reduction in adriamycin IC50 at 0.5 uM after 48 hrs by MTT assay relative to adriamycin alone
# Type: cell-based
# Conditions: not given
row,SMILES,Ratio IC50
1,COc1cc2c(cc1OC)CN(CCn1cc(CNc3ccccc3C(=O)Nc3ccc(C(C)(C)C)cc3)nn1)CC2,3.8

# Species on record: Homo sapiens
# Assay: Inhibition of P-gp in human K562/A02 cells assessed as potentiation of adriamycin-induced cytotoxicity by measuring fold reduction in adriamycin IC50 at 0.25 uM after 48 hrs by MTT assay relative to adriamycin alone
# Type: cell-based
# Conditions: not given
row,SMILES,Ratio IC50
1,COc1cc2c(cc1OC)CN(CCn1cc(CNc3ccccc3C(=O)Nc3ccc(C(C)(C)C)cc3)nn1)CC2,2.3

# Species on record: Homo sapiens
# Assay: Inhibition of P-gp in human K562/A02 cells assessed as potentiation of adriamycin-induced cytotoxicity by measuring fold reduction in adriamycin IC50 at 0.1 uM after 48 hrs by MTT assay relative to adriamycin alone
# Type: cell-based
# Conditions: not given
row,SMILES,Ratio IC50
1,COc1cc2c(cc1OC)CN(CCn1cc(CNc3ccccc3C(=O)Nc3ccc(C(C)(C)C)cc3)nn1)CC2,1.3

# Species on record: Homo sapiens
# Assay: Inhibition of P-gp in human K562/A02 cells assessed as potentiation of adriamycin-induced cytotoxicity by measuring fold reduction in adriamycin IC50 at 0.05 uM after 48 hrs by MTT assay relative to adriamycin alone
# Type: cell-based
# Conditions: not given
row,SMILES,Ratio IC50
1,COc1cc2c(cc1OC)CN(CCn1cc(CNc3ccccc3C(=O)Nc3ccc(C(C)(C)C)cc3)nn1)CC2,1.2

# Species on record: Homo sapiens
# Assay: Inhibition of P-gp in human K562/A02 cells assessed as potentiation of adriamycin-induced cytotoxicity by measuring fold reduction in adriamycin IC50 at 0.025 uM after 48 hrs by MTT assay relative to adriamycin alone
# Type: cell-based
# Conditions: not given
row,SMILES,Ratio IC50
1,COc1cc2c(cc1OC)CN(CCn1cc(CNc3ccccc3C(=O)Nc3ccc(C(C)(C)C)cc3)nn1)CC2,1.2

# Test system: not listed separately
# Assay: (§2) Inhibition of P-gp in human K562/A02 cells assessed as potentiation of adriamycin-induced cytotoxicity after 48 hrs by MTT assay
# Type: cell-based
# Conditions: K562/A02, 48 h
row,SMILES,EC50 [nM]
1,COc1cc2c(cc1OC)CN(CCn1cc(CNc3ccccc3C(=O)Nc3ccc(C(C)(C)C)cc3)nn1)CC2,253

# Species on record: Homo sapiens
# Assay: as §2
# Type: cell-based
# Conditions: not given
row,SMILES,inhibition
1,COc1cc2c(cc1OC)CN(CCn1cc(CNc3ccccc3C(=O)Nc3ccc(C(C)(C)C)cc3)nn1)CC2,Dose-dependent effect

# Species on record: Homo sapiens
# Assay: as §1, with “uM preincubated for 24 hrs followed by compound wash out and subsequent addition of adriamycin measured” for “uM”
# Type: cell-based
# Conditions: not given
row,SMILES,Ratio IC50
1,COc1cc2c(cc1OC)CN(CCn1cc(CNc3ccccc3C(=O)Nc3ccc(C(C)(C)C)cc3)nn1)CC2,11.6
2,COc1cc2c(cc1OC)CN(CCc1ccc(NC(=O)c3cc(OC)c(OC)cc3NC(=O)c3cnc4ccccc4c3)cc1)CC2,17

# Species on record: Homo sapiens
# Assay: as §1, with “uM preincubated for 24 hrs followed by compound wash out and subsequent addition of adriamycin after 6 hrs measured” for “uM”
# Type: cell-based
# Conditions: not given
row,SMILES,Ratio IC50
1,COc1cc2c(cc1OC)CN(CCn1cc(CNc3ccccc3C(=O)Nc3ccc(C(C)(C)C)cc3)nn1)CC2,8.1
2,COc1cc2c(cc1OC)CN(CCc1ccc(NC(=O)c3cc(OC)c(OC)cc3NC(=O)c3cnc4ccccc4c3)cc1)CC2,10.3

# Species on record: Homo sapiens
# Assay: as §1, with “uM preincubated for 24 hrs followed by compound wash out and subsequent addition of adriamycin after 12 hrs measured” for “uM”
# Type: cell-based
# Conditions: not given
row,SMILES,Ratio IC50
1,COc1cc2c(cc1OC)CN(CCn1cc(CNc3ccccc3C(=O)Nc3ccc(C(C)(C)C)cc3)nn1)CC2,5
2,COc1cc2c(cc1OC)CN(CCc1ccc(NC(=O)c3cc(OC)c(OC)cc3NC(=O)c3cnc4ccccc4c3)cc1)CC2,6.2

# Species on record: Homo sapiens
# Assay: as §1, with “uM preincubated for 24 hrs followed by compound wash out and subsequent addition of adriamycin after 24 hrs measured” for “uM”
# Type: cell-based
# Conditions: not given
row,SMILES,Ratio IC50
1,COc1cc2c(cc1OC)CN(CCn1cc(CNc3ccccc3C(=O)Nc3ccc(C(C)(C)C)cc3)nn1)CC2,3
2,COc1cc2c(cc1OC)CN(CCc1ccc(NC(=O)c3cc(OC)c(OC)cc3NC(=O)c3cnc4ccccc4c3)cc1)CC2,3.6

# Species on record: Homo sapiens
# Assay: Inhibition of P-gp in human K562/A02 cells assessed as potentiation of adriamycin-induced cytotoxicity by measuring fold reduction in adriamycin IC50 at 5 uM preincubated for 24 hrs followed by adriamycin addition measured after 48 hrs by MTT assay relative to adriamycin alone
# Type: cell-based
# Conditions: not given
row,SMILES,Ratio IC50
1,COc1cc2c(cc1OC)CN(CCn1cc(CNc3ccccc3C(=O)Nc3ccc(C(C)(C)C)cc3)nn1)CC2,40.7
2,COc1cc2c(cc1OC)CN(CCc1ccc(NC(=O)c3cc(OC)c(OC)cc3NC(=O)c3cnc4ccccc4c3)cc1)CC2,32.1

# Test system: K562/A02
# Assay: Inhibition of P-gp in human K562/A02 cells assessed as increase in adriamycin accumulation after 2.5 hrs by flow cytometry method
# Type: cell-based
# Conditions: not given
row,SMILES,inhibition
1,COc1cc2c(cc1OC)CN(CCn1cc(CNc3ccccc3C(=O)Nc3ccc(C(C)(C)C)cc3)nn1)CC2,Dose-dependent effect

# Test system: K562
# Assay: Inhibition of P-gp in human K562 cells assessed as increase in Rh123 accumulation at 5 uM after 2.5 hrs by flow cytometry method
# Type: cell-based
# Conditions: not given
row,SMILES,inhibition
1,COc1cc2c(cc1OC)CN(CCn1cc(CNc3ccccc3C(=O)Nc3ccc(C(C)(C)C)cc3)nn1)CC2,Active

# Test system: K562
# Assay: Inhibition of P-gp in human K562 cells assessed as Rh123 efflux at 5 uM after 90 mins by fluorospectro photometric analysis (reference value: >70%)
# Type: cell-based
# Set-up: scale not given: the % may be the effect or the level left
# Conditions: not given
row,SMILES,Activity [%]
1,COc1cc2c(cc1OC)CN(CCn1cc(CNc3ccccc3C(=O)Nc3ccc(C(C)(C)C)cc3)nn1)CC2,< 40

# Source: ChEMBL document CHEMBL4219209, “Design, synthesis and biological evaluation of novel tetrahydroisoquinoline derivatives as P-glycoprotein-mediated multidrug resistance inhibitors” (Bioorg Med Chem, 2018)
